From patent publication US20260258025A1, “INHIBITORS OF TDP-43 AND TAU AGGREGATION” (Aquinnah Pharmaceuticals, inc., priority 2023, published 2026)

These molecules were tested on TDP-43 aggregation (assay: TDP-43 aggregation assay in SY5Y TDP-43WT cells (high content imaging)). Conditions: Homo sapiens, tetracycline induction 24 hrs, 1 hour compound pre-treatment, sodium arsenite 23 hrs, 8-point dose curve, percentage of cells with TDP-43 aggregates, read-out: IC50, Inhibition of TDP-43 Aggregation.
Type: cell-based
Method: Exemplary compounds disclosed herein were evaluated for efficacy in inhibiting TDP-43 inclusions cellular imaging-based assays.
The cellular model was in human neuroblastoma SH SYSY cells (ATCC, cat #: CRL-2266). The parent cell line was first engineered to stably express a tetracycline repressor protein (designated as TREx-SY5Y cells, customer cell line development by ThermoFisher). Wild-type human TDP-43 with a C-terminus eGFP tag was synthesized and cloned into pcDNA5/TO expression vector (ThermoFisher). The plasmid was transfected into TREx-SY5Y cells using Lipofectamine 2000 and hygromycin resistant colonies were selected. Expression of TDP-43WT::eGFP was examined under fluorescent microscopy and Western blot upon tetracycline induction. The clone that was used for TDP-43 aggregation assay is referred to as SY5Y TDP-43WT cells hereafter.
Compound inhibition of TDP-43 aggregation was tested in an 8-point dose curve in 96-well format. Briefly, TDP-43WT::eGFP expression was induced with […] for 24 hrs (SY5Y TDP-43WT cells). The cells were then pre-treated for 1 hour with exemplary compounds before adding sodium arsenite to a final concentration of […] and incubated for another 23 hrs. At the end of the treatment the cell monolayers were washed in PBS and fixed in 4% paraformaldehyde (PFA), diluted from 16% stock (Electron Microscopy Sciences cat: #15710-S). The inhibitory effect on TDP-43 aggregation was measured using CellInsight CX7 high content imager (ThermoFisher). The percentage of cells with TDP-43 aggregates was calculated based on the total number of cells identified by DAPI staining. An 8-point dose response curve was generated, and the IC50 for each compound tested was determined (Table 3).
In Table 3 below, A indicates an IC50 (nM)<500 nM, B indicates an IC50 (nM) 500 nM to <1000 nM, C indicates an IC50 (nM) 1000 nM to <2000 nM, D indicates an IC50 (nM) 2000 nM to <6000 nM, and E indicates an IC50 (nM) 6000 nM to ≤10000 nM.

Structure (SMILES) | IC50 [nM]
Cc1cc(-c2ccc(C3=CCOCC3)cc2)sc1C(=O)N1CC[C@H](N)C1 [Compound 236] | < 500
Cc1cc(-c2ccc(C3CCCCC3)cc2)sc1C(=O)N1CC[C@H](N)C1 [Compound 238] | 6000 to 10000
Cc1cc(-c2ccc(N3CCOCC3)cc2)sc1C(=O)N1CC[C@H](N)C1 [Compound 239] | 500 to 1000
Cc1cc(-c2ccc(C3CCCC3)cc2)sc1C(=O)N1CC[C@H](N)C1 [Compound 241] | 6000 to 10000
Cc1cc(-c2ccc(-c3cn[nH]c3)cc2)sc1C(=O)N1CC[C@H](N)C1 [Compound 242] | < 500
Cc1cc(-c2ccc(C3CCOCC3)cc2)sc1C(=O)N1CC[C@H](N)C1 [Compound 243] | < 500
Cc1cc(-c2ccc(Cl)c(Cl)c2)sc1C(=O)N1CC[C@H](N)C1 [Compound 244] | 2000 to 6000
Cc1cc(-c2cc(Cl)cc(Cl)c2)sc1C(=O)N1CC[C@H](N)C1 [Compound 245] | 6000 to 10000
Cc1cc(-c2ccc3ccccc3c2)sc1C(=O)N1CC[C@H](N)C1 [Compound 246] | 6000 to 10000
Cc1cc(-c2ccc3c(c2)CCCC3)sc1C(=O)N1CC[C@H](N)C1 [Compound 247] | 6000 to 10000
N[C@H]1CCN(C(=O)c2sc(-c3ccc(C4CCN(C5CCOCC5)CC4)c(Cl)c3)cc2OC(F)(F)F)C1 [Compound 252, (S)-(3-aminopyrrolidin-1-yl)(5-(3-chloro-4-(1-(tetrahydro-2H-pyran-4-yl)piperidin-4-yl)phenyl)-3-(trifluoromethoxy)thiophen-2-yl)methanone] | 6000 to 10000
COCCN1CCC(c2ccc(-c3cc(Cl)c(C(=O)N4CC[C@H](N)C4)s3)cc2Cl)CC1 [Compound 253, (S)-(3-aminopyrrolidin-1-yl)(3-chloro-5-(3-chloro-4-(1-(2-methoxyethyl)piperidin-4-yl)phenyl)thiophen-2-yl)methanone] | < 500
N[C@H]1CCN(C(=O)c2sc(-c3ccc(C4CCN(C5CCOCC5)CC4)cc3)cc2Br)C1 [Compound 255, (S)-(3-aminopyrrolidin-1-yl)(3-bromo-5-(4-(1-(tetrahydro-2H-pyran-4-yl)piperidin-4-yl)phenyl)thiophen-2-yl)methanone] | < 500
COCCN1CCC(c2ccc(-c3cc(Cl)c(C(=O)N4CC[C@H](N)C4)s3)cc2)CC1 [Compound 258, (S)-(3-aminopyrrolidin-1-yl)(3-chloro-5-(4-(1-(2-methoxyethyl)piperidin-4-yl)phenyl)thiophen-2-yl)methanone] | < 500
COc1cc(C2CCN(C3CCOCC3)CC2)ccc1-c1cc(C)c(C(=O)N2CC[C@H](N)C2)s1 [Compound 259, (S)-(3-aminopyrrolidin-1-yl)(5-(2-methoxy-4-(1-(tetrahydro-2H-pyran-4-yl)piperidin-4-yl)phenyl)-3-methylthiophen-2-yl)methanone] | 2000 to 6000
COc1cc(-c2cc(C)c(C(=O)N3CC[C@H](N)C3)s2)ccc1C1CCN(C2CCOCC2)CC1 [Compound 260, (S)-(3-aminopyrrolidin-1-yl)(5-(3-methoxy-4-(1-(tetrahydro-2H-pyran-4-yl)piperidin-4-yl)phenyl)-3-methylthiophen-2-yl)methanone] | 1000 to 2000
Cc1cc(-c2ccc(C3CCN(C4CCOCC4)CC3)c(OC(F)(F)F)c2)sc1C(=O)N1CC[C@H](N)C1 [Compound 261, (S)-(3-aminopyrrolidin-1-yl)(3-methyl-5-(4-(1-(tetrahydro-2H-pyran-4-yl)piperidin-4-yl)-3-(trifluoromethoxy)phenyl)thiophen-2-yl)methanone] | 1000 to 2000
N[C@H]1CCN(C(=O)c2sc(-c3ccc(C4CCN(CCO)CC4)c(F)c3)cc2Cl)C1 [Compound 263, (S)-(3-aminopyrrolidin-1-yl)(3-chloro-5-(3-fluoro-4-(1-(2-hydroxyethyl)piperidin-4-yl)phenyl)thiophen-2-yl)methanone] | < 500
N[C@H]1CCN(C(=O)c2sc(-c3ccc(C4CCN(C5COC5)CC4)c(F)c3)cc2Cl)C1 [Compound 265, (S)-(3-aminopyrrolidin-1-yl)(3-chloro-5-(3-fluoro-4-(1-(oxetan-3-yl)piperidin-4-yl)phenyl)thiophen-2-yl)methanone] | < 500
N[C@H]1CCN(C(=O)c2sc(-c3ccc(C4CCN(C5CCOC5)CC4)c(F)c3)cc2Cl)C1 (stereo partly drawn) [Compound 267, ((S)-3-aminopyrrolidin-1-yl)(3-chloro-5-(3-fluoro-4-(1-(tetrahydrofuran-3-yl)piperidin-4-yl)phenyl)thiophen-2-yl)methanone] | < 500
N[C@H]1CCN(C(=O)c2sc(-c3ccc(C4CCN(C5CCCCC5)CC4)c(F)c3)cc2Cl)C1 [Compound 269, (S)-(3-aminopyrrolidin-1-yl)(3-chloro-5-(4-(1-cyclohexylpiperidin-4-yl)-3-fluorophenyl)thiophen-2-yl)methanone] | < 500
N[C@H]1CCN(C(=O)c2sc(-c3ccc(C4CCN(C5CCCC5)CC4)c(F)c3)cc2Cl)C1 [Compound 270, (S)-(3-aminopyrrolidin-1-yl)(3-chloro-5-(4-(1-cyclopentylpiperidin-4-yl)-3-fluorophenyl)thiophen-2-yl)methanone] | < 500

Continued, values first:

IC50 [nM] | Structure (SMILES)
500 to 1000 | COCCN1CCC(c2ccc(-c3cc(C)c(C(=O)N4CC[C@H](N)C4)s3)cc2Cl)CC1 [Compound 248, (S)-(3-aminopyrrolidin-1-yl)(5-(3-chloro-4-(1-(2-methoxyethyl)piperidin-4-yl)phenyl)-3-methylthiophen-2-yl)methanone]
< 500 | COC(C)(C)CN1CCC(c2ccc(-c3cc(Cl)c(C(=O)N4CC[C@H](N)C4)s3)cc2F)CC1 [Compound 249, (S)-(3-aminopyrrolidin-1-yl)(3-chloro-5-(3-fluoro-4-(1-(2-methoxy-2-methylpropyl)piperidin-4-yl)phenyl)thiophen-2-yl)methanone]
< 500 | COC(C)CN1CCC(c2ccc(-c3cc(Cl)c(C(=O)N4CC[C@H](N)C4)s3)cc2F)CC1 (stereo partly drawn) [Compound 250, ((S)-3-aminopyrrolidin-1-yl)(3-chloro-5-(3-fluoro-4-(1-(2-methoxypropyl)piperidin-4-yl)phenyl)thiophen-2-yl)methanone]
< 500 | COC(C)CN1CCC(c2ccc(-c3cc(C)c(C(=O)N4CC[C@H](N)C4)s3)cc2F)CC1 (stereo partly drawn) [Compound 251, ((S)-3-aminopyrrolidin-1-yl)(5-(3-fluoro-4-(1-(2-methoxypropyl)piperidin-4-yl)phenyl)-3-methylthiophen-2-yl)methanone]
< 500 | COC(C)(C)CN1CCC(c2ccc(-c3cc(C)c(C(=O)N4CC[C@H](N)C4)s3)cc2F)CC1 [Compound 254, (S)-(3-aminopyrrolidin-1-yl)(5-(3-fluoro-4-(1-(2-methoxy-2-methylpropyl)piperidin-4-yl)phenyl)-3-methylthiophen-2-yl)methanone]
< 500 | CC(C)(O)CN1CCC(c2ccc(-c3cc(Cl)c(C(=O)N4CC[C@H](N)C4)s3)cc2F)CC1 [Compound 256, (S)-(3-aminopyrrolidin-1-yl)(3-chloro-5-(3-fluoro-4-(1-(2-hydroxy-2-methylpropyl)piperidin-4-yl)phenyl)thiophen-2-yl)methanone]
< 500 | Cc1cc(-c2ccc(C3CCN(CC(C)(C)O)CC3)c(F)c2)sc1C(=O)N1CC[C@H](N)C1 [Compound 257, (S)-(3-aminopyrrolidin-1-yl)(5-(3-fluoro-4-(1-(2-hydroxy-2-methylpropyl)piperidin-4-yl)phenyl)-3-methylthiophen-2-yl)methanone]
< 500 | Cc1cc(-c2ccc(C3CCN(CCO)CC3)c(F)c2)sc1C(=O)N1CC[C@H](N)C1 [Compound 262, (S)-(3-aminopyrrolidin-1-yl)(5-(3-fluoro-4-(1-(2-hydroxyethyl)piperidin-4-yl)phenyl)-3-methylthiophen-2-yl)methanone]
< 500 | Cc1cc(-c2ccc(C3CCN(C4COC4)CC3)c(F)c2)sc1C(=O)N1CC[C@H](N)C1 [Compound 264, (S)-(3-aminopyrrolidin-1-yl)(5-(3-fluoro-4-(1-(oxetan-3-yl)piperidin-4-yl)phenyl)-3-methylthiophen-2-yl)methanone]
< 500 | CCN1CCC(c2ccc(-c3cc(Cl)c(C(=O)N4CC[C@H](N)C4)s3)cc2F)CC1 [Compound 266, (S)-(3-aminopyrrolidin-1-yl)(3-chloro-5-(4-(1-ethylpiperidin-4-yl)-3-fluorophenyl)thiophen-2-yl)methanone]
< 500 | COCCCN1CCC(c2ccc(-c3cc(Cl)c(C(=O)N4CC[C@H](N)C4)s3)cc2F)CC1 [Compound 268, (S)-(3-aminopyrrolidin-1-yl)(3-chloro-5-(3-fluoro-4-(1-(3-methoxypropyl)piperidin-4-yl)phenyl)thiophen-2-yl)methanone]
